Laboratory results as given in US10287266B2, “Compounds and compositions for inhibiting the activity of SHP2” (NOVARTIS AG, priority 2015, dated 2019).

Molecular target: T1, SHP2 (Homo sapiens, UniProt Q06124)
T1 sequence (Q06124 1-593): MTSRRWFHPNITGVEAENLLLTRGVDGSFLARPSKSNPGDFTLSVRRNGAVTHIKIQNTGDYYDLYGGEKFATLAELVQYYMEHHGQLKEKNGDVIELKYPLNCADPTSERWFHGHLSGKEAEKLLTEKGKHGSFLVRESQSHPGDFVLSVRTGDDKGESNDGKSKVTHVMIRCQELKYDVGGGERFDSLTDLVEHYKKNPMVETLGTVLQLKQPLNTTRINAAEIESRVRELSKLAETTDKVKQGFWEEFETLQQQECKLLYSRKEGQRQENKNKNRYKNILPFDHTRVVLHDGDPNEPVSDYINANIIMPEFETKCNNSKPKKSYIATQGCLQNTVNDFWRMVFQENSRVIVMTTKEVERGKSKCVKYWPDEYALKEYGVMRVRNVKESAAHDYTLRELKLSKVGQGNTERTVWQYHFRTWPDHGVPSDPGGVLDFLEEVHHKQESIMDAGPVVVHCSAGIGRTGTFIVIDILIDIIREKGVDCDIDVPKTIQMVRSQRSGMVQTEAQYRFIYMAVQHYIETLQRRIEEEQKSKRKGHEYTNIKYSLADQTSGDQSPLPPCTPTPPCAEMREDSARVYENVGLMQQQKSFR
Test: SHP2 Allosteric Inhibition Assay
Type: biochemical
Conditions: 0.5 nM SHP2 activated with 0.5 μM peptide IRS1_pY1172(dPEG8)pY1222; surrogate substrate DiFMUP, prompt fluorescence, 25° C.
Source text: SHP2 Allosteric Inhibition Assay
SHP2 is allosterically activated through binding of bis-tyrosyl-phorphorylated peptides to its Src Homology 2 (SH2) domains. The latter activation step leads to the release of the auto-inhibitory interface of SHP2, which in turn renders the SHP2 protein tyrosine phosphatase (PTP) active and available for substrate recognition and reaction catalysis. The catalytic activity of SHP2 was monitored using the surrogate substrate DiFMUP in a prompt fluorescence assay format.
After 30-60 minutes incubation at 25° C., the surrogate substrate DiFMUP (Invitrogen, cat# D6567) was added to the reaction and incubated at 25° C. for 30 minutes. […] The inhibitor dose response curves were analyzed using normalized IC50 regression curve fitting with control based normalization.

| AC50 | Structure (SMILES) |
| --- | --- |
| 17.3 nM | N[C@@H]1CCCC12CCN(c1cnc(Sc3ccccc3Cl)cn1)CC2 [Example 73] |
| 37.6 nM | COc1cccc(Sc2cnc(N3CCC4(CCC[C@H]4N)CC3)cn2)c1 [Example 74] |
| 97.7 nM | N[C@@H]1CCCC12CCN(c1cnc(Sc3cccc(F)c3F)cn1)CC2 [Example 75] |
| 279 nM | N[C@@H]1CCCC12CCN(c1cnc(Sc3cccc(Cl)c3)cn1)CC2 [Example 77] |
| 31.8 nM | N[C@@H]1CCCC12CCN(c1cnc(Sc3cccc(O)c3)cn1)CC2 [Example 78] |
| 31.4 nM | Nc1cccc(Sc2cnc(N3CCC4(CCC[C@H]4N)CC3)cn2)c1 [Example 79] |
| 210 nM | N#Cc1cccc(Sc2cnc(N3CCC4(CCC[C@H]4N)CC3)cn2)c1 [Example 80] |
| 54.8 nM | N[C@@H]1CCCC12CCN(c1cnc(Sc3cccc(CO)c3)cn1)CC2 [Example 81] |
| 81.1 nM | N[C@@H]1CCCC12CCN(c1cnc(Sc3cccc(Br)c3)cn1)CC2 [Example 82] |
| 78.1 nM | CCOc1cccc(Sc2cnc(N3CCC4(CCC[C@H]4N)CC3)cn2)c1 [Example 83] |
| 33.9 nM | N[C@@H]1CCCC12CCN(c1cnc(Sc3cccc(C4CC4)c3)cn1)CC2 [Example 84] |
| 52.8 nM | N[C@@H]1CCCC12CCN(c1cnc(Sc3cccc(C(F)(F)F)c3)cn1)CC2 [Example 85] |
| 235 nM | N[C@@H]1CCCC12CCN(c1cnc(Sc3ccc(C(F)(F)F)cc3)cn1)CC2 [Example 87] |
| 82.3 nM | N[C@@H]1CCCC12CCN(c1cnc(Sc3ccc(OC(F)(F)F)cc3)cn1)CC2 [Example 88] |
| 107 nM | N[C@@H]1CCCC12CCN(c1cnc(Sc3ccncc3)cn1)CC2 [Example 89] |
| 666 nM | N[C@@H]1CCCC12CCN(c1cnc(Sc3ccc(Br)c(Cl)c3)cn1)CC2 [Example 91] |
| 5.77 nM | N[C@@H]1CCCC12CCN(c1cnc(Sc3cccc(F)c3Cl)cn1)CC2 [Example 92] |
| 89.3 nM | N[C@@H]1CCCC12CCN(c1cnc(Sc3cccc(Cl)c3F)cn1)CC2 [Example 93] |
| 39 nM | N[C@@H]1CCCC12CCN(c1cnc(Sc3cccc(CN4CCOCC4)c3)cn1)CC2 [Example 94] |
| 159 nM | N[C@@H]1CCCC12CCN(c1cnc(Sc3ccncc3F)cn1)CC2 [Example 95] |
| 77.7 nM | N[C@@H]1CCCC12CCN(c1cnc(Sc3cccc(NC(=O)C4CC4)c3)cn1)CC2 [Example 96] |
| 29.3 nM | N[C@@H]1CCCC12CCN(c1cnc(Sc3ccnc4c3CCC4)cn1)CC2 [Example 97] |
| 293 nM | Cc1c(Sc2cnc(N3CCC4(CCC[C@H]4N)CC3)cn2)cccc1C(F)(F)F [Example 98] |
| 43.9 nM | N[C@@H]1CCCC12CCN(c1cnc(Sc3ccnc(F)c3Cl)cn1)CC2 [Example 99] |
| 151 nM | N[C@@H]1CCCC12CCN(c1cnc(Sc3ccc(F)cc3F)cn1)CC2 [Example 100] |
| 2510 nM | N[C@@H]1CCCC12CCN(c1cnc(Sc3c(F)c(F)cc(F)c3F)cn1)CC2 [Example 101] |

| AC50 | Structure (SMILES) |
| --- | --- |
| 436 nM | N[C@@H]1CCCC12CCN(c1cnc(Sc3cccc(S(F)(F)(F)(F)F)c3)cn1)CC2 [Example 102] |
| 78.9 nM | N[C@@H]1CCCC12CCN(c1cnc(Sc3cc[nH]c(=O)c3Cl)cn1)CC2 [Example 105] |
| 11300 nM | N[C@@H]1CCCC12CCN(c1cnc(Sc3cccnc3)cn1)CC2 [Example 106] |
| 74 nM | N[C@@H]1CCCC12CCN(c1cnc(Sc3cccc(Cl)c3Cl)cn1)CC2 [Example 107] |
| 52 nM | C[C@@H]1OCC2(CCN(c3cnc(Sc4ccccc4)cn3)CC2)[C@@H]1N [Example 108] |
| 28.8 nM | C[C@@H]1OCC2(CCN(c3cnc(Sc4cc[nH]c(=O)c4Cl)cn3)CC2)[C@@H]1N [Example 109] |
| 44.1 nM | C[C@@H]1OCC2(CCN(c3cnc(Sc4ccnc(F)c4Cl)cn3)CC2)[C@@H]1N [Example 111] |
| 34.8 nM | C[C@@H]1OCC2(CCN(c3cnc(Sc4ccncc4F)cn3)CC2)[C@@H]1N [Example 113] |
| 120 nM | C[C@@H]1OCC2(CCN(c3cnc(Sc4ccnc(F)c4)cn3)CC2)[C@@H]1N [Example 114] |
| 24.7 nM | C[C@@H]1OCC2(CCN(c3cnc(Sc4ccnc(N)c4Cl)cn3)CC2)[C@@H]1N [Example 115] |
| 45.1 nM | C[C@@H]1OCC2(CCN(c3cnc(Sc4cccc(CO)c4)cn3)CC2)[C@@H]1N [Example 117] |
| 57 nM | C[C@@H]1OCC2(CCN(c3cnc(Sc4cccc(O)c4)cn3)CC2)[C@@H]1N [Example 118] |
| 138 nM | CC(=O)c1cccc(Sc2cnc(N3CCC4(CCC[C@H]4N)CC3)cn2)c1 [Example 119] |
| 44.9 nM | Cc1ccccc1Sc1cnc(N2CCC3(CCC[C@H]3N)CC2)cn1 [Example 121] |
| 18.5 nM | C[C@@H]1OCC2(CCN(c3cnc(Sc4ccnc(C(F)(F)F)c4)cn3)CC2)[C@@H]1N [Example 122] |
| 75.8 nM | Cc1cccc(Sc2cnc(N3CCC4(CCC[C@@H]4N)CC3)cn2)c1 [Example 123] |
| 98 nM | CC(C)c1ccccc1Sc1cnc(N2CCC3(CCC[C@@H]3N)CC2)cn1 [Example 124] |
| 101 nM | CCc1ccccc1Sc1cnc(N2CCC3(CCC[C@@H]3N)CC2)cn1 [Example 125] |
| 130 nM | N[C@H]1CCCC12CCN(c1cnc(Sc3ccccc3OC(F)(F)F)cn1)CC2 [Example 126] |
| 44.9 nM | CC(C)(C)c1cccc(Sc2cnc(N3CCC4(CCC[C@@H]4N)CC3)cn2)c1 [Example 127] |
| 287 nM | CCc1ccc(Sc2cnc(N3CCC4(CCC[C@@H]4N)CC3)cn2)cc1 [Example 128] |
| 526 nM | CCc1cccc(Sc2cnc(N3CCC4(CCC[C@H]4N)CC3)cn2)c1 [Example 129] |
| 621 nM | N[C@H]1CCCC12CCN(c1cnc(Sc3ccccc3)cn1)CC2 [Example 130] |
| 1460 nM | CC(C)(C)c1ccccc1Sc1cnc(N2CCC3(CCC[C@@H]3N)CC2)cn1 [Example 131] |
| 1960 nM | CC(C)(C)c1ccc(Sc2cnc(N3CCC4(CCC[C@@H]4N)CC3)cn2)cc1 [Example 132] |
| 14.6 nM | Nc1nccc(Sc2cnc(N3CCC4(CCC(CO)[C@H]4N)CC3)cn2)c1Cl (stereo partly shown) [Example 133] |
